Measured values taken from patent EP1287854B1 (Cancer Research Technology Limited, priority 2001, dated 2003).
Several values for one entry are separate records, joined by “and”; a condition that tells them apart may be missing. Equal values may be shown once. Marks after values point to notes of the source that are not given here.

Columns and labels:
in vivo = conditions: female, C3H/HeN, mouse; for AUC: intraperitoneal
Method: (§3) At various times blood was collected from the retro-orbital sinus of anaesthetised mice into heparinised tubes, and the plasma separated by centrifugation. Tumours were rapidly dissected and frozen at -80°C. Groups of 2-5 mice were used for each time point.
(§4) LC-MS analysis of paclitaxel: Concentrations of paclitaxel in plasma and tumour were determined by HPLC with detection by positive mode electrospray mass spectrometry. Aliquots of plasma (50 µl) were treated with 1ml of ice-cold acetonitrile:methanol (3:1 v/v) to precipitate proteins. Following addition of 5 µl of an internal standard solution (10 mM cephalomannine), samples were centrifuged, and the resulting supernatants evaporated using a Speed-Vac solvent concentrator (Savant Instruments, NY). The residues were dissolved in 100 µl of 1:1 (v/v) methanol:mobile phase (48% acetonitrile, 52% 1mM sodium acetate buffer (pH 6.2)), and 5-40 µl analysed by LC-MS. Frozen tumours were minced, then homogenised in 2 vol distilled water using a Polytron homogeniser. Ice-cold acetonitrile (1 ml), and 10 µl of internal standard (20 µM cephalomannine) was added to 200 µl of tumour homogenate. The samples were centrifuged and the supernatants dried as above. The residues were dissolved in 200 µl of 1:1 (v/v) methanol:mobile phase, and 5 µl analysed by LC-MS.
(§5) The LC-MS system was an Agilent HP1100/MSD (Hewlett Packard Waldbronn, Germany) with a 3.2 mm x 150 mm C8 5 µm column (Alltima Associates Inc., Deerfield, IL) and a flow rate of 0.7 ml/min. The mass detector used N2 as the nebulizing and drying gas (flow rate 10 L/min, 350°C; neubulizer pressure 25 psi, capillary voltage 2500 V, fragmentor voltage 120 V). Paclitaxel (MW 854) and cephalomannine internal standard (MW 832) were detected, using single ion monitoring, as sodium adducts at m/z of 876 and 854, respectively. Spiking of control material indicated assay linearity from 0.3-30 µM for both plasma and tumour (r^2 = 0.999). The intra- and inter- assay precision and accuracy gave coefficients of variation ≤ 5%, and recoveries in the range 92-102%. The lower limit of detection of paclitaxel in plasma and tumour (signal:noise ratio of 3) was 0.3 µM.
(§6) Aliquots of plasma (50 µl) were treated with 1 ml of ice-cold acetonitrile:methanol (3:1 v/v), centrifuged, and the resulting supernatants evaporated as above. The residues were dissolved in 200 µl of 10 mM ammonium acetate buffer (pH 5) and 25 µl was analysed by HPLC using a HP1100 system with diode array detector (278 nm) and fluorescence detector. The column and flow rate were as for paclitaxel above, with a mobile phase of 16% acetonitrile (v/v) in 10 mM ammonium acetate buffer (pH 5). […] The intra- and inter- assay precision and accuracy gave coefficients of variation <7%, and an average recovery of 70%. The lower sensitivity limit of detection by fluorescence (signal:noise ration of 3) was 0.1 µM.
(§7) Pharmacokinetic Modelling: Modelling of pharmacokinetic data was done using ModelMaker version 4.0 (Cherwell Scientific Limited, The Magdalen Centre, Oxford Science Park, Oxford OX4 4GA, United Kingdom). The following pharmacokinetic parameters were used: Kabs, the first-order rate constant for absorption into the central compartment; Cl, total body clearance; Clinter, intercompartmental clearance; Vd, apparent volume of distribution of the central compartment; Vd2, apparent volume of distribution of the second compartment; Km, Michaelis-Menten constant; Vmax, theoretical maximum rate; AUC, area under the concentration-time curve. For all compounds it was assumed that all of the administered dose would reach the central compartment (i.e. 100% bioavailability). Differences between treatment groups were tested using a F-test comparing the entire curves and if this difference was significant (i.e. p≤0.05) the estimates of each individual model parameter for both groups were tested using a 2-tailed t-test.

[1] = Host toxicity: lethality, body weight change, MTD in tumour-bearing mice; conditions: for lowering of the MTD for the chemotherapy drug in the combination: co-administration of DMXAA 80 µmol/kg, one dose level; for MTD: MTD (µmol/kg)
Method: (§1) Murine mammary carcinoma MDAH-Mca-4 tumours were grown in female C3H/HeN mice from stocks stored in liquid nitrogen at the sixth transplant generation, and were passaged and used for experiments at the eighth transplant generation. Tumours for experiments were grown by inoculating 20 µl of cell suspension ([…] packed cells) intramuscularly in the right gastrocenmius muscle. Animals were randomised to treatment groups, and treated with drugs when the diameter of the tumour-bearing leg reached 10-11 mm (ca. 0.6 g tumour), approximately 18 days after inoculation. […] Both compounds were administered essentially at the same time (within 1 min). Host toxicity was assessed by determination of lethality, and by measurement of body weight 4-5 days after drug treatment. The diameter of the tumour-bearing leg was measured three times weekly until values exceeded 13 mm (ca 1.4 g tumour) at which time the animals were terminated. The growth curve for each individual tumour was plotted as in Figure 1, and the time-to-endpoint (TTE, time from treatment to endpoint) was determined for each mouse. The median and mean TTE was determined for each treatment group. The mean tumour growth delay for each group was calculated as the difference between mean TTE for treated and control groups. The statistical significance of the antitumour effects was tested using ANOVA followed by Dunnett's test to determine p values for the significance of differences between individual groups.
(§2) Toxicity was assessed as lethality, and body weight loss measured four days after treatment. Any animals becoming moribund were terminated and treated as drug-related deaths in the analysis. The diameter of the tumour-bearing leg was measured 3 times per week after treatment. Antitumour activity was assessed from the tumour growth delay, defined as the difference in time to reach the endpoint of 13 mm (1.5 g tumour) for treated and control groups. Responses were classed as cures if animals were free of evident tumour 120 days after treatment. The statistical significance of tumour growth inhibition was tested by ANOVA using SAS for Windows, with Dunnett's test to evaluate p-values for differences between treatment groups. In experiments with substantial numbers of cures (free of tumour for > 120 days after treatment), statistical significance was tested by Kruskal-Wallis non-parametric analysis of variance using SAS for Windows, and the difference between treatment and control groups by Dunn's test using Sigmastat v2.0.

[2] = Pharmacokinetics in plasma and tumour of tumour-bearing mice
Method: as §3, §4, §5, §6, §7

[3] = system: Murine mammary carcinoma MDAH-Mca-4 tumours; assay: Tumour growth delay and cures, MDAH-Mca-4 tumours grown i.m. in mice; assay type: in vivo, female C3H/HeN mice; conditions: for activity against the MDAH-Mca-4 tumour (in words): single i.p. dose, alone or co-administered with DMXAA 80 µmol/kg
Method: as §1
Animals and Tumours: Murine mammary carcinoma MDAH-Mca-4 tumours were grown from stocks stored in liquid nitrogen at the sixth transplant generation. Tumours (eighth transplant generation when used) were grown from 20 µl of cell suspension (7 mg packed cells), inoculated i.m. in the right gastrocnemius muscle of female C3H/HeN mice (22-25 g at the time of treatment). Mice were randomised to treatment which commenced when the tumour + leg diameter reached 10-11 mm (0.5-0.7 g tumour).
as §2

MDAH-Mca-4 tumour = assay: Tumour blood flow inhibition, Hoechst 33342 perfusion marker; assay type: in vivo, mice; conditions: DMXAA at 80 µmol/kg (Fig 6A)
Method: Tumour blood flow inhibition: Tumour blood flow was assessed using the fluorescent perfusion marker Hoechst 33342 (8mg/ml in saline), which was administered i.v. at various times after drug treatment. Mice were scarified 2 min later, and frozen sections (14 µm) prepared from the distal, central and proximal regions of each tumour. Sections were examined with a Nikon epifluorescence microscope at 10x magnification using a UV-1A filter block (excitation 365 nm, barrier filter 400 nm, and dichroic mirror 400 nm). A grid with 81 squares (100 x 100 µm), was used for point scoring of staining. The whole area of each section was scored to avoid bias between peripheral and central regions (which were less well perfused). Normal tissue was excluded but necrotic areas were included. Differences between groups were treated for significance using the Student's t-test (Sigma Stat, version-2.0; Jandel Scientific Limited).

[4] = DMXAA 80 µmol/kg alone, i.p. once (Table 1)
[5] = chemotherapy drug alone at its MTD, i.p.
[6] = chemotherapy drug at MTD of combination, co-administered with DMXAA 80 µmol/kg
[7] = female, C3H/HeN, mouse, in vivo, ip, chemotherapy drug alone (no DMXAA)
[8] = female, C3H/HeN, mouse, in vivo, ip, chemotherapy drug co-administered with DMXAA 80 µmol/kg
[9] = paclitaxel 31.6 µmol/kg alone, i.p. once
[10] = paclitaxel 31.6 µmol/kg alone, i.p. once, 7 mice treated
[11] = chemotherapy drug alone, linear regression of growth delay on dose
[12] = chemotherapy drug co-administered with DMXAA 80 µmol/kg, linear regression

Cc1ccc2c(=O)c3cccc(CC(=O)O)c3oc2c1C [DMXAA, 5,6-dimethylxanthenone-4-acetic acid]
AUC (in vivo; plasma, 80 umol/kg): 3630 µM·h
Km (in vivo; plasma, ip, 80 µmol/kg): 220 µM
% Body weight change (d4-5) Mean ([1]; DMXAA 80 µmol/kg alone (Table 3)): -4.8%
% Body weight change (d4-5) Mean [1, 4]: -4.1%
effect of co-administration on DMXAA plasma pharmacokinetic parameters ([2]; DMXAA 80 µmol/kg with paclitaxel at 23.7 µmol/kg): unaffected
Vmax (µM hr^-1) ([2]; Plasma, DMXAA 80 µmol/kg i.p., parentheses % CV): 63 (6.1) µM hr^-1
Growth delay (days) Median ([3]; DMXAA 80 µmol/kg alone (Table 3, interim analysis)): 10.5 days
Growth delay (days) Mean [3, 4]: 8.3 days
Number of mice Cures ([3]; DMXAA 80 µmol/kg alone, i.p. once, 7 mice treated (Table 1)): 0
mean tumour growth delays (range over experiments) ([3]; DMXAA alone at 80 µmol/kg): 3.5 to 8.3 days
tumour growth delay, overall mean ([3]; DMXAA alone at 80 µmol/kg, all experiments): 6.6 ± 0.6 days
inhibition of tumour blood flow (H33342 perfusion), time course (MDAH-Mca-4 tumour): prompt and irreversible blood flow shutdown, with no recovery by 24 hr

CC(=O)O[C@H]1C(=O)[C@@]2(C)[C@H]([C@H](OC(=O)c3ccccc3)[C@]3(O)C[C@H](OC(=O)[C@H](O)[C@@H](NC(=O)c4ccccc4)c4ccccc4)C(C)=C1C3(C)C)[C@]1(OC(C)=O)CO[C@@H]1C[C@@H]2O [paclitaxel, 5β, 20-Epoxy-1,2a,4,7β,10β,13a-hexahydroxytax-11-en-9-one 4,10-diacetate 2-benzoate 13-ester with (2R, 3 S)-N-benzoyl-3-phenylisoserine]
AUC (in vivo; plasma, 23.7 umol/kg): 18.8 µM·h
AUC (in vivo; tumour, 23.7 umol/kg): 32.8 µM·h
% body weight change at 4 days [1, 5]: 0.3 ± 1.1%
% body weight change at 4 days [1, 6]: -3.9 ± 1.2%
lowering of the MTD for the chemotherapy drug in the combination [1]: 1.33 fold
Number of mice Deaths ([1]; female, C3H/HeN, mouse, in vivo, ip, 42.1 µmol/kg): 0
MTD [1, 7]: 42.1 µmol/kg
MTD [1, 8]: 31.6 µmol/kg
% Body weight change (d4-5) Mean ([1]; mouse, in vivo, ip): 0.3%
% Body weight change (d4-5) Mean [1, 9]: 1.9%
Number of mice Deaths [1, 10]: 0
antitumour activity ([3]; DMXAA dose-response experiment (Fig 5), paclitaxel alone at 23.7 µmol/kg): no significant activity
Slope of dose/response [3, 11]: 0.08 ± 0.06 days/µmol/kg
Slope of dose/response [3, 12]: 1.83 ± 0.4 days/µmol/kg
DMF ([3]; gradient with DMXAA/gradient without DMXAA, estimated using upper error estimate of the slope for the chemotherapy drug only): significantly greater than unity
DMF ([3]; gradient with DMXAA/gradient without DMXAA, estimated using upper error estimate of the slope for the chemotherapy drug only, listed as Paclitaxel): >13^c
Growth delay (days) Mean [3, 9]: 0.1 days
Number of mice Cures [3, 10]: 0
Growth delay (days) Mean ([3]; paclitaxel 42.1 µmol/kg alone, i.p. once): 4 days and 4.3 days
Number of mice Cures ([3]; paclitaxel 42.1 µmol/kg alone, i.p. once, 7 mice treated): 0
activity against the MDAH-Mca-4 tumour (in words) [3]: essentially inactive

CC(=O)O[C@@]12CO[C@@H]1C[C@H](O)[C@@]1(C)C(=O)[C@H](O)C3=C(C)[C@@H](OC(=O)[C@H](O)[C@@H](NC(=O)OC(C)(C)C)c4ccccc4)C[C@@](O)([C@@H](OC(=O)c4ccccc4)[C@H]21)C3(C)C [docetaxel, (2R,3S)-N-carboxy-3-phenylisoserine, N tert-butyl ester, 13-ester with 5b-20-epoxy-1,2a,4,7b,10b,13a-hexahydroxytax-11-en-9-one 4-acetate 2-benzoate trihydrate]
% Body weight change (d4-5) Mean ([1]; Docetaxel 17.8 µmol/kg alone): -1.8%
Number of mice Deaths ([1]; Docetaxel 17.8 µmol/kg alone, 2 mice treated, interim analysis): 0
% Body weight change (d4-5) Mean ([1]; Docetaxel 23.7 µmol/kg alone): -4.1%
Number of mice Deaths ([1]; Docetaxel 23.7 µmol/kg alone, 5 mice treated, interim analysis): 0
% body weight change at 4 days [1, 5]: -4.1 ± 1.3%
% body weight change at 4 days [1, 6]: -7.2 ± 1.2%
lowering of the MTD for the chemotherapy drug in the combination [1]: 1.33 fold
MTD [1, 7]: 23.7 µmol/kg
MTD [1, 8]: 17.8 µmol/kg
Growth delay (days) Median ([3]; Docetaxel 17.8 µmol/kg alone, interim analysis): -1.7 days
Growth delay (days) Median ([3]; Docetaxel 23.7 µmol/kg alone, interim analysis): 0.8 days
Slope of dose/response [3, 11]: -0.02 ± 0.14 days/µmol/kg
Slope of dose/response [3, 12]: 1.37 ± 0.22 days/µmol/kg
DMF ([3]; gradient with DMXAA/gradient without DMXAA, estimated using upper error estimate of the slope for the chemotherapy drug only, trihydrate): significantly greater than unity
DMF ([3]; im): >9^c
activity against the MDAH-Mca-4 tumour (in words) ([3]; listed as Docetaxel, trihydrate): essentially inactive
activity against the MDAH-Mca-4 tumour (in words) ([3]; trihydrate): essentially devoid of activity
